ChEMBL document CHEMBL1201862, “PubChem BioAssay data set” (2004)
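Each compound was tested at five concentrations against cells in 96-well plates for 48 hours. Here, GI50 denotes the concentration required for 50% inhibition of growth.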 Calls of active or inactive are those of the source. No stated cut-off is given here; in the data, active = GI50 up to about 1.1 µM and inactive = higher.

Experiments:
Assay in all cases: DTP human tumour cell line panel, 48 h
[1] = test system: RXF 393
[2] = test system: SK-OV-3
[3] = test system: SF-539
[4] = test system: OVCAR-5
[5] = test system: SNB-19
[6] = test system: U-251
[7] = test system: LOX IMVI
[8] = test system: K562
[9] = test system: KM-20L2
[10] = test system: UACC-62
[11] = test system: KM12
[12] = test system: TK-10
[13] = test system: HT-29
[14] = test system: CAKI-1
[15] = test system: EKVX
[16] = test system: A498
[17] = test system: NCI-H23
[18] = test system: HOP-92
[19] = test system: DMS-273
[20] = test system: M14
[21] = test system: RXF 631
[22] = test system: HL-60
[23] = test system: HCT-15
[24] = test system: SF-268
[25] = test system: RPMI-8226
[26] = test system: SN12C
[27] = test system: NCI-H460
[28] = test system: UO-31
[29] = test system: OVCAR-4
[30] = test system: M19-MEL
[31] = test system: IGROV-1
[32] = test system: SNB-78
[33] = test system: A549
[34] = test system: DMS-114
[35] = test system: CCRF-CEM
[36] = test system: SF-295
[37] = test system: ACHN
[38] = test system: HCT-116
[39] = test system: OVCAR-8
[40] = test system: MOLT-4
[41] = test system: SK-MEL-28
[42] = test system: SK-MEL-5
[43] = test system: SNB-75
[44] = test system: NCI-H226
[45] = test system: NCI-H522
[46] = test system: OVCAR-3
[47] = test system: UACC-257
[48] = test system: SK-MEL-2
[49] = test system: SW-620
[50] = test system: HOP-62
[51] = test system: 786-0
[52] = test system: LXFL 529
[53] = test system: COLO 205
[54] = test system: SR
[55] = test system: XF498
[56] = test system: DLD-1
[57] = test system: HCC 2998

Question: Which GI50 [1] does the source give for `O=C1CCCCC2N(C(c3ccccc3)c3ccccc3)CC[C@@]12c1ccccc1.O=C1CCCC[C@H]2N(C(c3ccccc3)c3ccccc3)CC[C@@]12c1ccccc1` (stereo partly specified) here?
Answer: 4.32 µM (inactive)

Question: And the GI50 [2]?
Answer: > 10 µM (inactive)

Question: What about the GI50 [3] of the same molecule?
Answer: > 10 µM (inactive)

Question: And the GI50 [4]?
Answer: > 10 µM (inactive)

Question: And the GI50 [5]?
Answer: > 10 µM (inactive)

Question: What about the GI50 [6] of the same molecule?
Answer: > 10 µM (inactive)

Question: And the GI50 [7]?
Answer: 6.3 µM (inactive)

Question: And the GI50 [8]?
Answer: 4.27 µM (inactive)

Question: What about the GI50 [9] of the same molecule?
Answer: > 10 µM (inactive)

Question: And the GI50 [10]?
Answer: > 10 µM (inactive)

Question: And the GI50 [11]?
Answer: > 10 µM (inactive)

Question: And the GI50 [12]?
Answer: > 10 µM (inactive)

Question: And the GI50 [13]?
Answer: 4 µM (inactive)

Question: And the GI50 [14]?
Answer: 4.83 µM (inactive)

Question: What about the GI50 [15] of the same molecule?
Answer: 7.73 µM (inactive)

Question: What about the GI50 [16] of the same molecule?
Answer: > 10 µM (inactive)

Question: What about the GI50 [17] of the same molecule?
Answer: 4.8 µM (inactive)

Question: And the GI50 [18]?
Answer: 2.56 µM (inactive)

Question: What about the GI50 [19] of the same molecule?
Answer: > 10 µM (inactive)

Question: And the GI50 [20]?
Answer: > 10 µM (inactive)

Question: And the GI50 [21]?
Answer: 3.88 µM (inactive)

Question: What about the GI50 [22] of the same molecule?
Answer: 2.87 µM (inactive)

Question: And the GI50 [23]?
Answer: 7.93 µM

Question: And the GI50 [24]?
Answer: > 10 µM (inactive)

Question: What about the GI50 [25] of the same molecule?
Answer: 2.77 µM (inactive)

Question: And the GI50 [26]?
Answer: > 10 µM (inactive)

Question: And the GI50 [27]?
Answer: 9.55 µM (inactive)

Question: And the GI50 [28]?
Answer: 8.05 µM (inactive)

Question: What about the GI50 [29] of the same molecule?
Answer: 4.21 µM (inactive)

Question: What about the GI50 [30] of the same molecule?
Answer: > 10 µM (inactive)

Question: And the GI50 [31]?
Answer: > 10 µM (inactive)

Question: What about the GI50 [32] of the same molecule?
Answer: > 10 µM (inactive)

Question: What about the GI50 [33] of the same molecule?
Answer: > 10 µM (inactive)

Question: And the GI50 [34]?
Answer: 5.19 µM (inactive)

Question: What about the GI50 [35] of the same molecule?
Answer: 6.12 µM (inactive)

Question: What about the GI50 [36] of the same molecule?
Answer: > 10 µM (inactive)

Question: And the GI50 [37]?
Answer: 8.87 µM (inactive)

Question: And the GI50 [38]?
Answer: 2.99 µM (inactive)

Question: And the GI50 [39]?
Answer: > 10 µM (inactive)

Question: And the GI50 [40]?
Answer: 3.06 µM (inactive)

Question: What about the GI50 [41] of the same molecule?
Answer: > 10 µM (inactive)

Question: What about the GI50 [42] of the same molecule?
Answer: 4.57 µM (inactive)

Question: And the GI50 [43]?
Answer: > 10 µM (inactive)

Question: And the GI50 [44]?
Answer: 6.38 µM (inactive)

Question: What about the GI50 [45] of the same molecule?
Answer: 3.68 µM (inactive)

Question: And the GI50 [46]?
Answer: > 10 µM (inactive)

Question: What about the GI50 [47] of the same molecule?
Answer: 6.14 µM (inactive)

Question: How did the GI50 [1] turn out when `O=C1Nc2ccc([N+](=O)[O-])cc2/C1=N/Nc1ccc([N+](=O)[O-])cc1` was run?
Answer: 13.7 µM (inactive)

Question: What about the GI50 [2] of the same molecule?
Answer: 22.2 µM (inactive)

Question: And the GI50 [48]?
Answer: 30.1 µM (inactive)

Question: And the GI50 [3]?
Answer: 16.1 µM (inactive)

Question: And the GI50 [49]?
Answer: 12.5 µM (inactive)

Question: What about the GI50 [5] of the same molecule?
Answer: 17.6 µM (inactive)

Question: What about the GI50 [50] of the same molecule?
Answer: 18.3 µM (inactive)

Question: What about the GI50 [6] of the same molecule?
Answer: 19.8 µM (inactive)

Question: And the GI50 [51]?
Answer: 4.73 µM (inactive)

Question: And the GI50 [7]?
Answer: 27.5 µM (inactive)

Question: And the GI50 [8]?
Answer: 26.9 µM (inactive)

Question: What about the GI50 [9] of the same molecule?
Answer: 17.8 µM (inactive)

Question: What about the GI50 [10] of the same molecule?
Answer: 14.6 µM (inactive)

Question: And the GI50 [11]?
Answer: 12.4 µM (inactive)

Question: And the GI50 [12]?
Answer: 24.8 µM (inactive)

Question: And the GI50 [13]?
Answer: 21.4 µM (inactive)

Question: What about the GI50 [14] of the same molecule?
Answer: 20.5 µM (inactive)

Question: What about the GI50 [52] of the same molecule?
Answer: 12.4 µM (inactive)

Question: And the GI50 [15]?
Answer: 35.3 µM (inactive)

Question: And the GI50 [16]?
Answer: 59.3 µM (inactive)

Question: And the GI50 [17]?
Answer: 20.3 µM (inactive)

Question: And the GI50 [18]?
Answer: 9.08 µM (inactive)

Question: What about the GI50 [53] of the same molecule?
Answer: 34.7 µM (inactive)

Question: What about the GI50 [19] of the same molecule?
Answer: 10.7 µM (inactive)

Question: And the GI50 [20]?
Answer: 15.8 µM (inactive)

Question: What about the GI50 [21] of the same molecule?
Answer: 24.7 µM (inactive)

Question: What about the GI50 [23] of the same molecule?
Answer: 21.4 µM

Question: What about the GI50 [24] of the same molecule?
Answer: 11.3 µM (inactive)

Question: What about the GI50 [25] of the same molecule?
Answer: 5.09 µM (inactive)

Question: And the GI50 [54]?
Answer: 43.4 µM (inactive)

Question: And the GI50 [27]?
Answer: 12.8 µM (inactive)

Question: What about the GI50 [28] of the same molecule?
Answer: 26.5 µM (inactive)

Question: What about the GI50 [29] of the same molecule?
Answer: 19.5 µM (inactive)

Question: What about the GI50 [30] of the same molecule?
Answer: 16.1 µM (inactive)

Question: And the GI50 [31]?
Answer: 48.2 µM (inactive)

Question: What about the GI50 [33] of the same molecule?
Answer: 14.4 µM (inactive)

Question: And the GI50 [34]?
Answer: 19.9 µM (inactive)

Question: And the GI50 [35]?
Answer: 72.1 µM (inactive)

Question: What about the GI50 [36] of the same molecule?
Answer: 11.8 µM (inactive)

Question: What about the GI50 [37] of the same molecule?
Answer: 22.3 µM (inactive)

Question: What about the GI50 [39] of the same molecule?
Answer: 13.8 µM (inactive)

Question: And the GI50 [55]?
Answer: 16.7 µM (inactive)

Question: And the GI50 [40]?
Answer: 41.6 µM (inactive)

Question: What about the GI50 [41] of the same molecule?
Answer: 19.5 µM (inactive)

Question: What about the GI50 [56] of the same molecule?
Answer: 17.8 µM (inactive)

Question: And the GI50 [42]?
Answer: 12.2 µM (inactive)

Question: And the GI50 [43]?
Answer: 40.9 µM (inactive)

Question: And the GI50 [44]?
Answer: 2.72 µM (inactive)

Question: What about the GI50 [45] of the same molecule?
Answer: 17.2 µM (inactive)

Question: What about the GI50 [46] of the same molecule?
Answer: 20.1 µM (inactive)

Question: What about the GI50 [47] of the same molecule?
Answer: 21.1 µM (inactive)

Question: With `c1ccc2c(c1)[nH]c1c2nc2ccccn21` as the molecule, how does the GI50 [1] read?
Answer: > 100 µM (inactive)

Question: What about the GI50 [48] of the same molecule?
Answer: > 100 µM (inactive)

Question: And the GI50 [3]?
Answer: > 100 µM (inactive)

Question: And the GI50 [50]?
Answer: > 100 µM (inactive)

Question: And the GI50 [51]?
Answer: 81.3 µM (inactive)

Question: And the GI50 [57]?
Answer: > 100 µM (inactive)

Question: What about the GI50 [8] of the same molecule?
Answer: 74.3 µM (inactive)

Question: What about the GI50 [14] of the same molecule?
Answer: 67.9 µM (inactive)

Question: What about the GI50 [16] of the same molecule?
Answer: 85.5 µM (inactive)

Question: What about the GI50 [21] of the same molecule?
Answer: > 100 µM (inactive)

Question: What about the GI50 [26] of the same molecule?
Answer: > 100 µM (inactive)

Question: What about the GI50 [54] of the same molecule?
Answer: > 100 µM (inactive)

Question: What about the GI50 [30] of the same molecule?
Answer: > 100 µM (inactive)

Question: And the GI50 [36]?
Answer: > 100 µM (inactive)

Question: And the GI50 [55]?
Answer: > 100 µM (inactive)

Question: And the GI50 [56]?
Answer: 66.1 µM (inactive)

Question: What about the GI50 [44] of the same molecule?
Answer: > 100 µM (inactive)

Question: And the GI50 [45]?
Answer: > 100 µM (inactive)
